From US7229987B2, “Multicyclic compounds for use as melanin concentrating hormone antagonists in the treatment of obesity and diabetes” (Eli Lilly and Company, priority 2002, dated 2007)

System: Diet-induced obese male Long-Evans rats
Experiment: Block of MCH-stimulated food intake after intracerebroventricular injection
Assay type: in vivo, rat
Settings: 82 nmol compound plus 2.1 nmol MCH, ICV; food intake at 2, 4 and 6 hours after injection; n=6 per group; p<0.05 vs. MCH alone; FIG. 1
Protocol: Diet-induced obese male Long-Evans rats (Harlan, Ind.) weighing 500–550 g at time of surgery were anesthetized with isoflurane. Stainless steel cannula guides (5 mm length, 26 gauge, Plastics One, Va.) were stereotaxically implanted in the lateral ventricle anteroposteriority: 0.8 mm caudal to bregma; and lateral: 1.5 mm from midline suture. Animals were individually housed in a temperature regulated room (24° C.) with a reverse 12 hour light/dark cycle (dark 10:00/22:00). Water and food (Teklad 95217, Harlan, Wis.) were available ad libitum. After surgery, animals were allowed to recover 7 days before experimental use. On test day, food was removed 1 hr prior to testing and animals (4 groups, n=6 per group) were injected between 0900 and 1000 with 5 μl of vehicle (artificial CSF), 2.1 nmol MCH, 82 nmol of compound of example 136, and MCH plus compound of example 136. Cumulative food intake was measured at 2, 4 and 6 hours after injection.

C(=C\c1ccc(-c2nnc(CSCCOc3ccccc3)o2)cc1)/CN1CCCC1 [Example 136, (E)-2-{[(2-phenoxyethyl)thio]methyl}-5-[4-(3-pyrrolidinopropen-1-yl)phenyl]-1,3,4-oxadiazole]
effect on orexigenic effect of exogenous MCH (cumulative food intake): completely blocked the orexigenic effect of exogenous MCH
